Experimental data as given in ChEMBL document CHEMBL1201862, “PubChem BioAssay data set” (2004).
Calls of active or inactive are those of the source.

Key:
[1] = NIH-3T3 fibroblast cytotoxicity, dose response, cytotoxicity control, cell-based, fluorescence, Alamar Blue, secondary assay (AID 2327); format: functional;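 further: NIH-3T3 mouse fibroblasts cultured with fluconazole at 8 µg/mL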
[2] = molecular target: T1, Heat shock factor protein 1 (Mus musculus, UniProt P38532); test: inhibition of MG132-induced HSE-luciferase signal, confirmation, cell-based, NIH3T3, luminescence, dose retest (AID 2382); format: functional;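 further: NIH3T3 fibroblasts with HSF1-driven luciferase reporter stressed by proteasome inhibitor MG132; luminescence from HSF1-driven luciferase expression after 8 hours of MG132 stress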
T1 sequence (P38532 whole entry): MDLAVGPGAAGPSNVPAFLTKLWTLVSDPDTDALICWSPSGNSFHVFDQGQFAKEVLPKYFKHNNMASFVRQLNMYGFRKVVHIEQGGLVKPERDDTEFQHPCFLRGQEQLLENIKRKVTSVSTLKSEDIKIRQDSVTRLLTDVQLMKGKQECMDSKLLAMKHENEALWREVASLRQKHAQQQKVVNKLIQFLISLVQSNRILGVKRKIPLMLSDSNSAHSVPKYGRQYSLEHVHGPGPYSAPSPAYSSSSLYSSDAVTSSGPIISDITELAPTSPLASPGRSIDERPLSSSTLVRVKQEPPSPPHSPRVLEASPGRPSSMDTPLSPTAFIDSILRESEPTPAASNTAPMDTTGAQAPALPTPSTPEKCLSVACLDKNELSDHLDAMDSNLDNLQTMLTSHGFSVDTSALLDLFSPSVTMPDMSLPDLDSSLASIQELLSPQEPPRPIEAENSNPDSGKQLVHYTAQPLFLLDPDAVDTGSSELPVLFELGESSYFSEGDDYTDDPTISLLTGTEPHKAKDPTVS

[3] = C. albicans growth with fluconazole, confirmation, fluorescence, retest (AID 2467); format: functional, cell-based
[4] = microbe, parasite or virus in culture; format: functional; details: Mycobacterium tuberculosis
[5] = molecular target: T2, Short transient receptor potential channel 4 (Mus musculus, UniProt Q9QUQ5); test: mouse TRPC4 channel activators, dose response, cell-based, HEK293 TRPC4/mu-opioid, Fluo-4 calcium (AID 434937); format: functional
T2 sequence (Q9QUQ5 whole entry): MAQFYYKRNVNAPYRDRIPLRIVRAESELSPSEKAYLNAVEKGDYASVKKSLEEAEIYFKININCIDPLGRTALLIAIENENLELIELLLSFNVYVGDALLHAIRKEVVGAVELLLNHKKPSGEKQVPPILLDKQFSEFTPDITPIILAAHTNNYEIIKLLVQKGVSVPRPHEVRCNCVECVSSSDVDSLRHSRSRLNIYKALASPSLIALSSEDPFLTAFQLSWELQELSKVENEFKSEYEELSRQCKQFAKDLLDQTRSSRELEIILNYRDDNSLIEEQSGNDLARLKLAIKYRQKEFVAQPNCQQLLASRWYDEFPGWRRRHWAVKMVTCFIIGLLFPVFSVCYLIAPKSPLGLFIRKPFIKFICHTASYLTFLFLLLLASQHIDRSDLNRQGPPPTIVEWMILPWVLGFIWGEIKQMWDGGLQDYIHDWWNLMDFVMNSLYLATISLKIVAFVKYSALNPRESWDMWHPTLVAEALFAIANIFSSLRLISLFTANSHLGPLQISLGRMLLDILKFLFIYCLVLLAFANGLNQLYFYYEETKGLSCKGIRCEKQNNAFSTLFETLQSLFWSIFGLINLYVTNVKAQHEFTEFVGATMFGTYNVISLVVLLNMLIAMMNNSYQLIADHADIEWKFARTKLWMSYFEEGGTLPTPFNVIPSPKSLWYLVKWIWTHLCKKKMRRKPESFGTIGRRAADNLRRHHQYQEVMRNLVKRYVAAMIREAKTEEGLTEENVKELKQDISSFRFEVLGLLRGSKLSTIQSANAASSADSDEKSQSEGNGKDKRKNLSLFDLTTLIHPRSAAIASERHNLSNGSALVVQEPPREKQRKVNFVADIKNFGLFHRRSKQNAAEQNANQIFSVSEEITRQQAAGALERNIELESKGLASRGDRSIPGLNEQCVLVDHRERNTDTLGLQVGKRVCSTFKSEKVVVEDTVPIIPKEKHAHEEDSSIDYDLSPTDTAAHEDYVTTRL

[6] = molecular target: Heat shock protein HSP 90-alpha (Homo sapiens, UniProt P07900); format: functional, organism-based
[7] = Shn3 3'UTR reporter inhibitors, dose response, cell-based, Clone20 osteoblasts, firefly luciferase, cherry-picked (AID 624132); format: functional;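 further: firefly luciferase luminescence from reporter carrying the Shn3 3'UTR in osteoblasts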
[8] = HepG2 cell cytotoxicity, dose response, cytotoxicity control for Shn3 inhibitor project, CellTiter-Glo, cherry-picked (AID 624134); format: functional, cell-based
[9] = control 3'UTR Renilla luciferase suppression, dose response, counter-screen for Shn3 inhibitor project, cell-based, Clone20-Shn3RL, cherry-picked (AID 624133); format: functional
[10] = THP-1 cell cytotoxicity, dose response, cytotoxicity control for non-replicating M. tuberculosis project (AID 489025); format: functional
cells = format: functional
Vero = test: cells; format: functional; details: Chlorocebus sabaeus
Cytochrome P450 1A2 = molecular target: T3, Cytochrome P450 1A2 (Homo sapiens, UniProt P05177);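 further: PubChem cytochrome P450 panel assay, CYP1A2 panel member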
T3 sequence (P05177 whole entry): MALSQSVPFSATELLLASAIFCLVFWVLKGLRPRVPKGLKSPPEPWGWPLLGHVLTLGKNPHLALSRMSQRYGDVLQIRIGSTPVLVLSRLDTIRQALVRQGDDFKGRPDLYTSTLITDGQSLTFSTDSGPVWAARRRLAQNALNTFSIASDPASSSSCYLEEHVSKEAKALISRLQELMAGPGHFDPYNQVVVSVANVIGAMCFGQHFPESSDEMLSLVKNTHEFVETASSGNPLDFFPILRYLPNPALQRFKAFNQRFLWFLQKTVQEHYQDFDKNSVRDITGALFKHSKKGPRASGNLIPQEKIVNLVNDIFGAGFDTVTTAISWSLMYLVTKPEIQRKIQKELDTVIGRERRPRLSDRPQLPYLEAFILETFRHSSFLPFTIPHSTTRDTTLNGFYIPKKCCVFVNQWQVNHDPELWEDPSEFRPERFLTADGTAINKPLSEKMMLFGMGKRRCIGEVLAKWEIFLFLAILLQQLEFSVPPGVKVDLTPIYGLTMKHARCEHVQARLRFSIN

Cytochrome P450 2C9 = Cytochrome P450 2C9 (Homo sapiens, UniProt P11712)
Cytochrome P450 3A4 = Cytochrome P450 3A4 (Homo sapiens, UniProt P08684);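 further: CYP3A4 tested as one member of a cytochrome P450 panel screen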
Prothrombin = Prothrombin (Homo sapiens, UniProt P00734); test: Thrombin 1536 HTS Dose Response Confirmation. [Related pubchem assays: 1046 (Thrombin 1536 HTS; hits were confirmed in this assay)]; format: functional
Cytochrome P450 2D6 = Cytochrome P450 2D6 (Homo sapiens, UniProt P10635);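 further: CYP2D6 member of a cytochrome P450 panel assay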
Aminopeptidase N = molecular target: T4, Aminopeptidase N (Plasmodium falciparum FcB1/Columbia, UniProt O96935); test: P. falciparum M1AAP inhibitors, biochemical, fluorogenic H-Leu-NHMec substrate, 1536-well (AID 1445); set-up: species or system Plasmodium falciparum 3D7, 3D7
T4 sequence (O96935 whole entry): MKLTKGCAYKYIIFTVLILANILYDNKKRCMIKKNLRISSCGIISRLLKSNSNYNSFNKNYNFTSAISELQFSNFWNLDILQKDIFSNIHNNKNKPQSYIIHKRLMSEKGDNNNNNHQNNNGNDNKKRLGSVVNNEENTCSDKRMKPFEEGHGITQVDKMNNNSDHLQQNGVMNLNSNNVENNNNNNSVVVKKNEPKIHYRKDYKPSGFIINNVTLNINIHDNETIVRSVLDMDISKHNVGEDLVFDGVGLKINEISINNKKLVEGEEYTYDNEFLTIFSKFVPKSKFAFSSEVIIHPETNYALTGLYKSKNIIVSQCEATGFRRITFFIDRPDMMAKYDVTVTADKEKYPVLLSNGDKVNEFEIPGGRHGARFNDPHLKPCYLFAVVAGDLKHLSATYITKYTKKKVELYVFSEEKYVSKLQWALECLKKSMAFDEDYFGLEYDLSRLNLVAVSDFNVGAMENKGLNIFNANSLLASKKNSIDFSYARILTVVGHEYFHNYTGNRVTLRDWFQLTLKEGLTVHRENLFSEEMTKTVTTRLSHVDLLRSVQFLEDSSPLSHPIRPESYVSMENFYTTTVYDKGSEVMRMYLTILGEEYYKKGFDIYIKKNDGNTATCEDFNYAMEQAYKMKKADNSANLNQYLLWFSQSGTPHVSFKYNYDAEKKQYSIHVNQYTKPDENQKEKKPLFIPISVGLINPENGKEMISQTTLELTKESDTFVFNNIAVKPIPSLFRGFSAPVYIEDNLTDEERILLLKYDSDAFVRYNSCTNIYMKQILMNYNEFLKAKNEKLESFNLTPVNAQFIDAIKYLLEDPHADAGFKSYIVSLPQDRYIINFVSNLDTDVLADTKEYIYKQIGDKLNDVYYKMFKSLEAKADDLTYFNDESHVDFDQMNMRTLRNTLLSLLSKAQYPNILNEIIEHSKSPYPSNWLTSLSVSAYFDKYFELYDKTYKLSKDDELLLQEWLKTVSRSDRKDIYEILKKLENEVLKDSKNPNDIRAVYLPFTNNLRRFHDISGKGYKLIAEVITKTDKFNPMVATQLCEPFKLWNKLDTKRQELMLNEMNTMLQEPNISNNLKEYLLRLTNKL

[11] = molecular target: T5, Rac GTPase-activating protein 1 (Homo sapiens, UniProt Q9H0H5); test: MgcRacGAP GTPase-activating activity inhibitors, confirmation, biochemical, ADP Hunter fluorescence, primary and confirmatory (AID 624330); format: functional
T5 sequence (Q9H0H5 whole entry): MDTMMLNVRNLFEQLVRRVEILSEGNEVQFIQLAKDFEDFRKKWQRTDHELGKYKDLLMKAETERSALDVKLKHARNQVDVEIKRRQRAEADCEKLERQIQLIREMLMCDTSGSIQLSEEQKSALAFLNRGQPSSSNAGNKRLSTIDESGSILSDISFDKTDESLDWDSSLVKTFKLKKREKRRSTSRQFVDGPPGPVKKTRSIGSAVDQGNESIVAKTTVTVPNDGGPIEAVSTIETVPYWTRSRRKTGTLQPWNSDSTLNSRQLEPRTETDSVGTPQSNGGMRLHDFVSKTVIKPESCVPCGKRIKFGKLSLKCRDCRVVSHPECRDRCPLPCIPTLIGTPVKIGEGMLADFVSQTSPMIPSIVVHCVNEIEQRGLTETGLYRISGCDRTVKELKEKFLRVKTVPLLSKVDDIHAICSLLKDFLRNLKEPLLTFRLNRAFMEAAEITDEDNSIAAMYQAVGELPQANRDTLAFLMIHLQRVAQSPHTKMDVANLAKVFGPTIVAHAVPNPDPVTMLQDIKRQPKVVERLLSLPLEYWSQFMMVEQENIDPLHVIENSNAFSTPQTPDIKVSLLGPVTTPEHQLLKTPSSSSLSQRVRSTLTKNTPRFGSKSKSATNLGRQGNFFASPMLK

Cytochrome P450 2C19 = Cytochrome P450 2C19 (Homo sapiens, UniProt P33261); test: Cytochrome panel assay with activity outcomes. Panel member name: p450-cyp2c19 Compounds with AC50 equal or less than 10 uM are considered active; format: functional; details: read-out: AC50
Sequence of Cytochrome P450 2C19 (P33261 whole entry): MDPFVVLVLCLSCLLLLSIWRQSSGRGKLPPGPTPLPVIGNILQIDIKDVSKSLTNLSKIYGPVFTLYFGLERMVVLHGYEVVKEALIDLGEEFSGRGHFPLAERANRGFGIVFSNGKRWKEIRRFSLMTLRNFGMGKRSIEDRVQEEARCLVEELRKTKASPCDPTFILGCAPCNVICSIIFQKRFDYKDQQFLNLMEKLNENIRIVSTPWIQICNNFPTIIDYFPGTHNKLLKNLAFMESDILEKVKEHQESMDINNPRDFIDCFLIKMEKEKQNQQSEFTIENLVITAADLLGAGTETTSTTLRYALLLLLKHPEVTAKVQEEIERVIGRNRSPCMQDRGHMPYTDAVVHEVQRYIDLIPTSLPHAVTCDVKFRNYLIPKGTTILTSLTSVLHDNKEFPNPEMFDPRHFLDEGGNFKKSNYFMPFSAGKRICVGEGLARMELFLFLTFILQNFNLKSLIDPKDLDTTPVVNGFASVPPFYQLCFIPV

Sequence of Cytochrome P450 3A4 (P08684 whole entry): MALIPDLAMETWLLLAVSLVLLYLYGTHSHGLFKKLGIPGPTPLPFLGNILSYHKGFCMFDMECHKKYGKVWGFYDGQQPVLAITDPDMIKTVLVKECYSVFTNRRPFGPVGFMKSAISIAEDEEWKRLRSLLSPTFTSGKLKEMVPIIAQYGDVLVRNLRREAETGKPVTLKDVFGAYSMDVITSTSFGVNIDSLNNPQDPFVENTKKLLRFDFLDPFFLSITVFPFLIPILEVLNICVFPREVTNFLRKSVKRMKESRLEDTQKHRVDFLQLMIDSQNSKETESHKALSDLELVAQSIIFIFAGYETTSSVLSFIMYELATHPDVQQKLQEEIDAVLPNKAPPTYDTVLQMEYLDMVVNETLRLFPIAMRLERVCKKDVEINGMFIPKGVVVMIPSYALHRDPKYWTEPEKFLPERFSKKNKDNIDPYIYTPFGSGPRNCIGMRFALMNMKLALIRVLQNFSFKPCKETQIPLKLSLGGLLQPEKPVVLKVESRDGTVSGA
Sequence of Cytochrome P450 2C9 (P11712 whole entry): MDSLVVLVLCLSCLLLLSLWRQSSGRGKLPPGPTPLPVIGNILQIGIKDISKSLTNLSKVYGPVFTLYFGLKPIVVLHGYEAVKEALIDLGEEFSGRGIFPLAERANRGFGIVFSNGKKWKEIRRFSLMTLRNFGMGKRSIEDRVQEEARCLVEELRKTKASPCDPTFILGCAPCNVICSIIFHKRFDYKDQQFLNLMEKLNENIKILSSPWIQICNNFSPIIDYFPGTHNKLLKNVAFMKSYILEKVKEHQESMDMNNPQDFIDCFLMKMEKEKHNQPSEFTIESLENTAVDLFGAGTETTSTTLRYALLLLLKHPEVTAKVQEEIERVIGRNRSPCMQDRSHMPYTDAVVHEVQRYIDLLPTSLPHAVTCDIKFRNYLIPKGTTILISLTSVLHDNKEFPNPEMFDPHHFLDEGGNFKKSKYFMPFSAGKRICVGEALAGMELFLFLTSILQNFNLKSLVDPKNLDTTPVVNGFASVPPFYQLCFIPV
Sequence of Cytochrome P450 2D6 (P10635 whole entry): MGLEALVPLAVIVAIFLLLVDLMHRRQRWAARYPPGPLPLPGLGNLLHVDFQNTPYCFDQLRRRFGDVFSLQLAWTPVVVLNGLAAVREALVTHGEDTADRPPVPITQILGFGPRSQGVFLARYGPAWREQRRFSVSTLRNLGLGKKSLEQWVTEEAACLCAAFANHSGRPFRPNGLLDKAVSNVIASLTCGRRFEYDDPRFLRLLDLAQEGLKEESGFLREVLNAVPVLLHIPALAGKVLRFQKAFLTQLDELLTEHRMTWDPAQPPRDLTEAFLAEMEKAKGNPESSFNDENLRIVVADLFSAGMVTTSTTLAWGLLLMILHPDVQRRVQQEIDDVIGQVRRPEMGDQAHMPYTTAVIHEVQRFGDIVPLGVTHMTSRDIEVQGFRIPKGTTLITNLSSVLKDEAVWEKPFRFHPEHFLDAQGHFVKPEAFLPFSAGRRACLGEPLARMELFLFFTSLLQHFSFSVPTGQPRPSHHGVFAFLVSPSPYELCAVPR

For `CC(C)(C)C(=O)NC(=S)NNC(=O)c1sc2ccccc2c1Cl`, the EC50 [1] was 2.54 µM (inconclusive), the EC50 [2] was 3.06 µM (active) and the EC50 [3] was 1.35 µM (active). For the same compound, the CC50 [4] was 6.74 µM (active), the EC50 [5] was 0.267 µM (active) and the AC50 [6] was 3.26 µM (active). The AC50 [7] was 19.1 µM (active), the AC50 [8] was 12.1 µM (active) and the AC50 [9] was 1.54 µM (active).
In the case of `Clc1ccc(OCCCNCc2ccccc2)c2ccccc12`, the CC50 [10] is reported as 23.6 µM (active), the IC50 (cells) is reported as 12.2 µM (active) and the CC50 (Vero) is reported as > 25 µM (active).
In the case of `Cn1cccc1C(=O)N1CCC2(CC1)CN(C(c1ccccc1)c1ccccc1)C2`, the AC50 (Cytochrome P450 1A2) is reported as 31.6 µM (inconclusive), the AC50 (Cytochrome P450 2C9) is reported as 39.8 µM (inconclusive) and the AC50 (Cytochrome P450 3A4) is reported as “inconclusive”.
For `COCC(=O)N1CCC2(CC1)CCN(C(c1ccccc1)c1ccccc1)CC2`, the AC50 (Cytochrome P450 3A4) was “inconclusive”.
In the case of `CCN(CC)S(=O)(=O)c1ccc2c(c1)c(=O)c(C(=O)NCc1ccco1)cn2C`, the EC50 [2] is reported as > 195 µM (not active) and the IC50 (Prothrombin) is reported as 2.14 µM (active).
With `O=C(c1ccco1)N1CCC2(CC1)CN(c1ccccn1)C2` the AC50 (Cytochrome P450 2D6) was 15.8 µM (inconclusive) and the AC50 (Cytochrome P450 3A4) was “inconclusive”.
With `Cc1ccc(/C=C2\SC(=S)N(C3CCS(=O)(=O)C3)C2=O)o1` (centres undefined) the CC50 [10] was > 40 µM (active).
In the case of `O=C(O)/C(=C\c1ccccc1)Cc1ccccc1`, the AC50 (Cytochrome P450 2C9) is reported as 3.98 µM (inconclusive) and the AC50 (Cytochrome P450 3A4) is reported as “inconclusive”.
For `COC(=O)c1ccc(N2CCN(C)CC2)c(NC(=O)c2cccs2)c1`, the EC50 [5] was 2.11 µM (active).
In the case of `CN(C)CCNc1nc(S(=O)(=O)c2ccccc2)c(Cl)s1`, the IC50 (Aminopeptidase N) is reported as 51.9 µM (active).
In the case of `Oc1ccc(Cl)cc1/N=C/c1c[nH]nc1O`, the IC50 (Aminopeptidase N) is reported as 14.3 µM (active) and the IC50 [11] is reported as 30 µM (active).
In the case of `COC(=O)N1CCC2(CC1)CCN(c1ccccc1)CC2`, the AC50 (Cytochrome P450 2C19) is reported as 5.01 µM (inconclusive) and the AC50 (Cytochrome P450 3A4) is reported as “inconclusive”.
For `O=C(Oc1ccccc1)N1CCC2(CC1)CN(c1ccccn1)C2`, the AC50 (Cytochrome P450 3A4) was “inconclusive”.
With `CCN1CCN(c2c(Cl)cccc2NC(=O)c2ccc3nsnc3c2)CC1` the EC50 [5] was 0.668 µM (active).
In the case of `Cc1ccc(OCC(=O)N2CCN(C(=O)CCC3CCCC3)CC2)cc1`, the IC50 (Aminopeptidase N) is reported as 57.3 µM (active).
For `Clc1ccc(Cl)c(OCCCCNCc2ccccc2)c1`, the CC50 [10] was 38.1 µM (active) and the IC50 (cells) was 36.9 µM (active).
